Reference: patent EP0406428B1, “PEPTIDE DERIVATIVES AND THEIR USE” (ASAHI GLASS COMPANY LTD., priority 1988, dated 1995)
Residues, ends and D or L forms follow the SMILES beside them.

Assays:
blood platelet = experiment: Decrease in number of blood platelet in surgical operation using artificial heart and lung; assay type: in vivo; settings: surgical operations using artificial heart and lung; control PBS
Procedure: The following Table indicates the results of examination of decrease in the number of the blood platelet, when 100 »g (per 1 kg of weight/minute) of [formula] was added for the purpose of the surgical operation. As the control, there was added PBS in place of peptide.

trypsin = experiment: Peptide map: decomposition with trypsin, HPLC analysis; assay type: in vitro ADME; settings: Tris-HCl 100 mM pH 8.5, 37°C, 24 hours, compared with linear peptide (GRGDSPA)
Procedure: Peptide was dissolved in 10 mg/mℓ of distilled water. 20 »l of this solution was diluted with addition of 180 »l of a buffer solution (Tris-HCl, 100 mM, pH 8.5). To this diluted solution, 5 »l of a trip solution (1 mg/mℓ […], CaCl₂ 10 mM) was added, and the mixture was kept at a temperature of 37°C for 24 hours. Then, 10 »l of 2N HCl was added to this mixed solution to complete the reaction. Out of this reaction liquid, 50 »l was provided for high performance liquid chromatography HPLC for its analysis. Condition for Analysis HP HPLC: Waters Model 510 Column: YMC-ODS Detection: A₂₁₄ Elution: Liquid A - 0.1% aqueous solution of TFA Liquid B - 0.1% acetonitrile solution of TFA Linear concentration gradient of: 0% B → 30% B (0 min.) (30 min.) Figure 1 is a graphical representation showing the result of analysis of the cyclic peptide synthesized in accordance with this Example. Also, the linear peptide (GRGDSPA) synthesized in accordance with (14) above was tested under the same conditions as mentioned above. The result of its analysis is shin in Figure 2.

| SMILES | inhibiting aggregation of blood platelet (blood platelet) | decomposition by treatment with trypsin (trypsin) |
| --- | --- | --- |
| C[C@@H]1NC(=O)[C@@H]2CCCN2C(=O)[C@H](CO)NC(=O)[C@H](CC(=O)O)NC(=O)CNC(=O)[C@H](CCCNC(=N)N)NC(=O)CNC1=O [Example I00042] (cyclo(RGDSPAG)) | capability of inhibiting such aggregation at its low concentration |  |
| C[C@@H]1NC(=O)[C@@H]2CCCN2C(=O)[C@H](CO)NC(=O)[C@H](CC(=O)O)NC(=O)CNC(=O)[C@H](CCCNC(=N)N)NC(=O)CNC1=O [Example 1] (cyclo(RGDSPAG)) |  | difficult to undergo further decomposition |
